US20110268818A1, “NGAL-BINDING SIDEROPHORES AND USE THEREOF TO TREAT IRON DEFICIENCY AND IRON OVERLOAD” (priority 2008, published 2011)
Counter-ions that a name gives are not always drawn. Each block holds one molecule with its values, some of them ahead of it.

Columns and labels:
[1] = biological target: T1, NGAL (Homo sapiens, UniProt P80188); experiment: NGAL:siderophore:iron binding assay (retention on 10 kDa filter); details: for NGAL: Chelator: Fe % Retention: apoNGAL 10 μM, 55Fe, compound 10 μM, pH 7.4, washed on 10 kDa filter; for NGAL-siderophore-Fe binding activity (in words): iron retention by NGAL on filter
T1 construct: made in house; host or cells: E. coli BL-21
Procedure: NGAL:Siderophore:Iron Binding Assays. […] After 60 minutes, the mixture was washed 3 times (YM-10) or alternatively gel filtered (PD-10, GE Biosciences). Ent loaded NGAL served as a positive control. Ferric citrate (1 mM) or Ent:iron (500 μM) served as competitors of ^55Fe binding.
After 60 minutes at room temperature, the mixture was then washed 3 times on a 10-kDa membrane (Amicon YM-10; Millipore Corp.). Ngal loaded with iron-free enterochelin (rather than apo-Ngal) served as a positive control for iron capture. Ferric citrate (1 mM) or iron-loaded enterochelin (siderophore:Fe, […]) was used as a competitor of 55Fe binding.

[2] = Catechol sulfate stability followed by silica gel TLC; type: physicochemical
From the text: FIG. 29 is a reproduction of Silical gel TLC developed by Dichlorlmethane: MeOH:H2O=5:1:0.1, and colored by 12.

[3] = Siderophore:iron binding assay (paper chromatography); details: 55Fe mobilised by compound on paper chromatogram developed in water; Yes/No
From the text: Siderophore:Iron Binding Assay. To test whether candidates bound iron directly, candidates (1 nmole) were mixed with ^55Fe (1 pmole), and then separated bound from free ^55Fe using paper chromatography developed in water.
Paper chromatography: The Fe-Siderophore Binding Assay: The concept underlying the Ngal-siderophore-Fe binding assay is that the urinary molecule provides an iron binding siderophore, and that the Ngal protein provides the carrier which retains the siderophore:Fe on the 10 KDa filter. […] To directly test this idea, we will mix 55Fe with HMDB compounds and then separate bound from free 55Fe by using paper chromatography. […] The assay also provides an independent means to follow the purification of the urinary siderophore. Using this assay, we can measure the specific activity of the fractions to identify the peak activity, as well as to compare the urinary fraction with enterochelin to establish relative units of activity.

[4] = biological target: T1, NGAL; experiment: Release of ligands and iron from NGAL complexes by acidification; type: physicochemical; details: fluorescence and 55Fe release
From the text: FIGS. 6A-6C. Release of ligands from NGAL by acidification. […] Fluorescence was quenched by ligand binding. Upon acidification, the ligands were released and fluorescence returned to baseline. Subsequent basification, where relevant, caused rebinding. Note that NGAL:pyrogallol and 2,3-dihydroxybenzoic acid complexes required much lower pH for dissociation. (B) Release of ^55Fe from different NGAL:catecholate complexes by low pH washes on a 10 KDa microcon. For this comparison, the retention of iron at pH7.0 was defined as 100%. […] Data were presented as mean±Std.
To transport iron from plasma to cells there has to be a mechanism for releasing iron from the complex. Intracellular delivery of iron by transferring is known to require passage through acidified endosomes where iron is released. […] While the complex was stable at neutral pH, acidification below pH 7.0 progressively reversed ligand-dependent fluorescence quenching of NGAL and released iron (FIG. 6A, B).
Fluorescence quenching binding assay. […] The pH was adjusted until the fluorescence signal stopped changing, while fluorescence values were corrected for dilution. Data were analyzed by a nonlinear regression analysis using a one-site binding model (Kuzmic, P. (1996). Program DYNAFIT for the analysis of enzyme kinetic data: application to HIV proteinase. Anal. Biochem. 237, 260-273). […]

[5] = biological target: T1, NGAL; experiment: Fluorescence quenching binding assay
Procedure: Fluorescence quenching binding assay. […] The pH was adjusted until the fluorescence signal stopped changing, while fluorescence values were corrected for dilution. […] Control experiments were performed to ensure the stability of the protein at experimental conditions, including the dilution and the addition of DMSO and ubiquitin.

[6] = Catechol and iron traffic to the kidney in vivo; details: mouse
[7] = Hydroxyl radicals detected by conversion of HPF to fluorescein; type: biochemical; details: catechol, ferric iron and H2O2
From the text: NGAL Blocks Iron Induced Hydroxyl Radicals. […] Hydroxyl radicals were detected by the conversion of HPF to fluorescein (Setsukinai, K., Urano, Y., Kakinuma, K., Majima, H. J., Nagano, T. (2003). Development of Novel Fluorescence Probes That Can Reliably Detect Reactive Oxygen Species and Distinguish Specific Species. J Biol Chem. 278, 170-3175) using […].

[8] = Free catechol stability in solution monitored by NMR; type: physicochemical; details: monitored for 20 hrs by NMR, D2O
From the text: J. Agric Food Chem. 54, 5755-5762; Carmella, S. G., La, V. E. J., Hecht, S. S. (1982). […] Food Chem Toxicol. 20, 587-590) and aromatic amino acids (˜50%; Martin et al., 1982; Carmella et al., 1982; Bakke, O. M. (1969). Urinary simple phenols in rats fed purified and nonpurified diets. J. Nutr. 98, 209-216). […] Using urinary biomarkers to elucidate dose-related patterns of human benzene metabolism. Carcinogenesis 27, 772-781), whereupon they are sulfonated (Rennick, B., Quebbemann, A. (1970). Site of excretion of catechol and catecholamines: renal metabolism of catechol. Am. J. Physiol. 218, 1307-1312).

[9] = tested on: Mouse stromal cells; experiment: Capture of NGAL:siderophore:55Fe by stromal cells; type: cell-based; details: bafilomycin inhibits vacuolar H+ ATPase
Procedure: Capture of NGAL:Siderophore:Iron. Mouse stromal cells (10^5) were grown in MEM, 10% FCS for 24 hrs and FCS subsequently removed. […] Cells were washed 3 times and extracted with 0.2% SDS.

[10] = Reduction of Fe3+ to Fe2+ detected with phenanthroline; type: biochemical; details: catechols 45 μM, ferric iron 15 μM, NGAL 15 μM

Molecule: Oc1ccccc1O [Catechol]
NGAL: Chelator: Fe % Retention [1]: 56%
NGAL-siderophore-Fe binding activity (in words) [1]: most active compound
NGAL-siderophore-Fe binding activity (in words) ([1]; listed as catechol): highest activities
increase in binding affinity for NGAL in the presence of iron ([5]; with iron vs without iron): 10^5
pH at which the NGAL:ligand:iron complex dissociates [4]: 5.5 pH
clearance of free 14C-catechol by organs [6]: rapidly cleared
conversion of HPF to fluorescein (hydroxyl radical formation) [7]: Conversion of HPF to fluorescein occurs
stability of free catechol in solution [8]: stable in solution

Molecule: CO/C1=C\C(C)=C\[C@@H](C)[C@@H](O)[C@@H](C)C/C(C)=C/C=C/[C@H](OC)[C@@H]([C@@H](C)[C@@H](O)[C@H](C)[C@@]2(O)C[C@@H](O)[C@H](C)[C@@H](C(C)C)O2)OC1=O [bafilomycin]
iron donation from NGAL:catechol:iron complex to cells [9]: blocked

Molecule: Maleic acid
Fe: Chromatography [3]: No
NGAL: Chelator: Fe % Retention [1]: 4%

B1: NGAL: Neutrophil Gelatinase Associated Lipocalin, recombinant protein (protein, UniProt P80188 21-198, looked up)
Neutrophil …: QDSTSDLIPAPPLSKVPLQQNFQDNQFQGKWYVVGLAGNAILREDKDPQKMYATIYELKEDKSYNVTSVLFRKKKCDYWIRTFVPGCQPGEFTLGNIKSYPGLTSYLVRVVSTNYNQHAMVFFKKVSQNREYFKITLYGRTKELTSELKENFIRFSKSLGLPENHIVFPVPIDQCIDG
reduction of ferric iron to ferrous iron (phenanthroline) [10]: blocked the reaction
conversion of HPF to fluorescein (hydroxyl radical formation) [7]: blocked the reaction

Results, then the molecule that gave them:

NGAL: Chelator: Fe % Retention [1]: 4%
stability in methanol at pH≦6 ([2]; incubated for 1 hour): decompose
stability in urine ([2]; incubated for 48 hours): stable
Molecule: O=S(=O)([O-])Oc1ccccc1O.[Na+]

Fe: Chromatography [3]: Yes
NGAL: Chelator: Fe % Retention [1]: 56%
NGAL-siderophore-Fe binding activity (in words) [1]: highest activities
pH at which the NGAL:ligand:iron complex dissociates [4]: 5.5 pH
Molecule: Cc1cccc(O)c1O [3-methylcatechol]

Fe: Chromatography [3]: Yes
NGAL: Chelator: Fe % Retention [1]: 29%
NGAL-siderophore-Fe binding activity (in words) [1]: highest activities
affinity for NGAL (in words) [5]: low affinity
Molecule: Cc1ccc(O)c(O)c1 [4-methylcatechol]

Fe: Chromatography [3]: No
NGAL: Chelator: Fe % Retention [1]: 3%
Molecule: CCC1C(=O)NC(CC2=N/C(=C\c3[nH]c(CC4NC(=O)C(C)C4CC)c(C)c3CCC(=O)O)C(CCC(=O)O)=C2C)C1C (centres unmarked) [Urobilin HCl]
